Assay results reported in the NIST ThermoML archive (doi:10.1021/je050296u).
± gives the expanded uncertainty stated by the source.

assay: mn = molality of the nth substance listed, in mol/kg; conditions: 298.15 K; 101.33 kPa; Liquid; Calvet calorimetry; m1 = 0.1

apparent molar enthalpy	SMILES
3.38 ± 0.0574 kcal/mol	NCC(=O)O [2-aminoacetic acid] + O
1.81 ± 0.0359 kcal/mol	C[C@H](N)C(=O)O [(S)-2-aminopropanoic acid] + O
2.71 ± 0.0478 kcal/mol	N[C@@H](CO)C(=O)O [L-serine] + O
